Results as given in US9023789B2, “Amylin analogs and pharmaceutical compositions thereof” (Novo Nordisk A/S, priority 2012, dated 2015).
Numbered stars: 1 amine (or outer) side, 2 acyl side, 3 side chain; on linkers, the order of the positions; unused ones are H or OH. Bridge positions count the residues as written; N and C are the ends. Side chains are listed from the residue outwards. Peptide text beside a SMILES is read from it. * marks the point of attachment. C20 diacid = O=C(O)CCCCCCCCCCCCCCCCCCC(=O)*; γGlu = O=C(O)[C@H](CCC(=O)[*:2])N[*:1]; AEEA = NCCOCCOCC(=O)O

What was measured:
Male Wistar rats = experiment: ASSAY (XII) effect from single subcutaneous administration on plasma calcium in rats; type: in vivo, rat; settings: for Plasma calcium red (%) 0-12 h (maximal): single s.c., compared to vehicle; for suppression of plasma calcium level relative to vehicle: monitored over 24 hours
Procedure, shortened: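 Male Wistar rats (~250 g), groups of five, received a single subcutaneous dose at time 0. Blood drawn at −15 min, 1, 2, 4, 7, 12 and 24 h; total calcium measured in heparin plasma, reported as mean±SEM.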

[1] = ASSAY (X) pK, determination of T½ in rat; type: in vivo; settings: male, Sprague Dawley, plasma, iv, 20 nmol/kg
Male Sprague-Dawley rats = experiment: ASSAY (XI) single subcutaneous administration, food intake monitored for 48 hours in rats; type: in vivo, rat; settings: for Food intake red (%) 0-24 h / Food intake red (%) 24-48 h: single s.c., compared to vehicle; for food intake monitored over 48 hours: single subcutaneous administration, versus vehicle
Procedure, shortened: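 Male Sprague-Dawley rats from Taconic Europe, weighing about 250 g on the test day, were singly housed in an online food intake monitoring system (Ellegaard MBRose, Denmark). Before the study they were acclimatized to a reversed light cycle, with lights on from 10 PM to 10 AM. Each rat then received one subcutaneous dose of the analogue, and data are reported as mean±SEM.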

[2] = biological target: T1, human calcitonin receptor (Homo sapiens, UniProt P30988); experiment: ASSAY (VII) binding to the human calcitonin receptor (SPA, 125I-Calcitonin); settings: read-out: hCTR bind IC50;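 note: cell membranes (35 ng/µL) combined with SPA beads in 40 µL of pH 7.4 Hepes buffer, 384-well format, signal counted on a TopCounter instrument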
T1 construct: expressed in transfected cells
T1 sequence (P30988 25-474): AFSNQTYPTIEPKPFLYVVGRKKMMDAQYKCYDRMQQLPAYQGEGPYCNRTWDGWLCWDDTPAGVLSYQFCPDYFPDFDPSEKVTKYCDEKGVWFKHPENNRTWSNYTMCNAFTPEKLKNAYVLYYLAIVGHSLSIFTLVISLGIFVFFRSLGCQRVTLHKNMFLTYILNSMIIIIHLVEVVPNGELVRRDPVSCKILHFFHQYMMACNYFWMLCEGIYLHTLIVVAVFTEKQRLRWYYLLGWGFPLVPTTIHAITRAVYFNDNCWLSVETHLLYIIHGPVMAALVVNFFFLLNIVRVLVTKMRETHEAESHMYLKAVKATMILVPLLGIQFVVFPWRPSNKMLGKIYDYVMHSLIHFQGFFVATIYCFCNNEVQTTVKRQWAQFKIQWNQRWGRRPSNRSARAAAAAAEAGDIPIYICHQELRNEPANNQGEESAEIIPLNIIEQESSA

[3] = ASSAY (IX) pK, determination of T½ in mini-pig; type: in vivo; settings: male, Göttingen, minipig, plasma, iv, 2 nmol/kg

Row | SMILES | Plasma calcium red (%) 0-12 h (maximal) (Male Wistar rats; 100 nmol/kg) | half-life [1] | IC50 [2] | half-life [3] | Plasma calcium red (%) 0-12 h (maximal) (Male Wistar rats; 30 nmol/kg) | suppression of plasma calcium level relative to vehicle (Male Wistar rats; single subcutaneous 100 nmol/kg) | Food intake red (%) 0-24 h (Male Sprague-Dawley rats; 3 nmol/kg) | Food intake red (%) 24-48 h (Male Sprague-Dawley rats; 3 nmol/kg) | Food intake red (%) 0-24 h (Male Sprague-Dawley rats; 30 nmol/kg) | Food intake red (%) 24-48 h (Male Sprague-Dawley rats; 30 nmol/kg) | suppression of plasma calcium level relative to vehicle (Male Wistar rats; single subcutaneous 30 nmol/kg) | suppression of plasma calcium level relative to vehicle (Male Wistar rats; single subcutaneous 1000 nmol/kg) | food intake monitored over 48 hours (Male Sprague-Dawley rats; 30 nmol/kg)
1 | CC[C@H](C)[C@H](NC(=O)[C@H](C)NC(=O)CNC(=O)[C@H](Cc1ccccc1)NC(=O)[C@H](CC(N)=O)NC(=O)[C@@H]1CCCN1C(=O)[C@H](CO)NC(=O)[C@H](CO)NC(=O)[C@H](Cc1c[nH]cn1)NC(=O)[C@H](CCCNC(=N)N)NC(=O)[C@H](CC(C)C)NC(=O)[C@H](Cc1ccccc1)NC(=O)[C@H](CC(N)=O)NC(=O)[C@H](C)NC(=O)[C@H](CC(C)C)NC(=O)[C@H](CCCNC(=N)N)NC(=O)[C@H](CCC(N)=O)NC(=O)[C@@H](NC(=O)[C@H](C)NC(=O)[C@@H]1CSSC[C@H](NC(=O)[C@@H](N)CCCCNC(=O)COCCOCCNC(=O)CC[C@H](NC(=O)CCCCCCCCCCCCCCCCCCC(=O)O)C(=O)O)C(=O)N[C@@H](CC(N)=O)C(=O)N[C@@H]([C@@H](C)O)C(=O)N[C@@H](C)C(=O)N[C@@H]([C@@H](C)O)C(=O)N1)[C@@H](C)O)C(=O)N1CCC[C@H]1C(=O)N[C@@H](CO)C(=O)N[C@@H](CO)C(=O)N[C@H](C(=O)N[C@@H](CC(N)=O)C(=O)N[C@H](C(=O)NCC(=O)N[C@@H](Cc1c[nH]cn1)C(=O)N[C@@H](CC(N)=O)C(=O)N[C@H](C(=O)N[C@@H](Cc1ccc(O)cc1)C(N)=O)[C@@H](C)O)C(C)C)[C@@H](C)O [Example 76] (H-K([AEEA-γGlu-C20 diacid])CNTATCATQRLANFLRHSSPNFGAIPSSTNVGHNTY-NH2; disulfide 2-7; N-terminus assumed) | – | – | 17.2 nM | 76 h | – | – | – | – | – | – | – | – | –
2 | CC[C@H](C)[C@H](NC(=O)[C@H](C)NC(=O)CNC(=O)[C@H](Cc1ccccc1)NC(=O)[C@H](CC(N)=O)NC(=O)[C@@H]1CCCN1C(=O)[C@H](CO)NC(=O)[C@H](CO)NC(=O)[C@H](Cc1c[nH]cn1)NC(=O)[C@H](CCCNC(=N)N)NC(=O)[C@H](CC(C)C)NC(=O)[C@H](Cc1ccccc1)NC(=O)[C@H](Cc1c[nH]cn1)NC(=O)[C@H](C)NC(=O)[C@H](CC(C)C)NC(=O)[C@H](CCCNC(=N)N)NC(=O)[C@H](CCC(N)=O)NC(=O)[C@@H](NC(=O)[C@H](C)NC(=O)[C@@H]1CSSC[C@H](NC(=O)[C@@H](N)CCCCNC(=O)CC[C@H](NC(=O)CCCCCCCCCCCCCCCCCCC(=O)O)C(=O)O)C(=O)N[C@@H](CC(N)=O)C(=O)N[C@@H]([C@@H](C)O)C(=O)N[C@@H](C)C(=O)N[C@@H]([C@@H](C)O)C(=O)N1)[C@@H](C)O)C(=O)N1CCC[C@H]1C(=O)N[C@@H](CO)C(=O)N[C@@H](CO)C(=O)N[C@H](C(=O)N[C@@H](CC(N)=O)C(=O)N[C@H](C(=O)NCC(=O)N[C@@H](CCCNC(=N)N)C(=O)N[C@@H](CC(N)=O)C(=O)N[C@H](C(=O)N[C@@H](Cc1ccc(O)cc1)C(N)=O)[C@@H](C)O)C(C)C)[C@@H](C)O [Example 85] (H-K([γGlu-C20 diacid])CNTATCATQRLAHFLRHSSPNFGAIPSSTNVGRNTY-NH2; disulfide 2-7 (inferred); N-terminus assumed) | – | – | 80.4 nM | 85 h | – | – | – | – | – | – | – | – | –

More lines, main results first:

Row | Plasma calcium red (%) 0-12 h (maximal) (Male Wistar rats; 100 nmol/kg) | half-life [1] | IC50 [2] | half-life [3] | Plasma calcium red (%) 0-12 h (maximal) (Male Wistar rats; 30 nmol/kg) | SMILES | suppression of plasma calcium level relative to vehicle (Male Wistar rats; single subcutaneous 100 nmol/kg) | Food intake red (%) 0-24 h (Male Sprague-Dawley rats; 3 nmol/kg) | Food intake red (%) 24-48 h (Male Sprague-Dawley rats; 3 nmol/kg) | Food intake red (%) 0-24 h (Male Sprague-Dawley rats; 30 nmol/kg) | Food intake red (%) 24-48 h (Male Sprague-Dawley rats; 30 nmol/kg) | suppression of plasma calcium level relative to vehicle (Male Wistar rats; single subcutaneous 30 nmol/kg) | suppression of plasma calcium level relative to vehicle (Male Wistar rats; single subcutaneous 1000 nmol/kg) | food intake monitored over 48 hours (Male Sprague-Dawley rats; 30 nmol/kg)
3 | 9% | 28 h | – | – | – | CC[C@H](C)[C@H](NC(=O)[C@H](C)NC(=O)CNC(=O)[C@H](Cc1ccccc1)NC(=O)[C@H](CC(N)=O)NC(=O)[C@@H]1CCCN1C(=O)[C@H](CO)NC(=O)[C@H](CO)NC(=O)[C@H](Cc1c[nH]cn1)NC(=O)[C@H](CCCNC(=N)N)NC(=O)[C@H](CC(C)C)NC(=O)[C@H](Cc1ccccc1)NC(=O)[C@H](CC(=O)O)NC(=O)[C@H](C)NC(=O)[C@H](CC(C)C)NC(=O)[C@H](CCCNC(=N)N)NC(=O)[C@H](CCC(N)=O)NC(=O)[C@@H](NC(=O)[C@H](C)NC(=O)[C@@H]1CSSC[C@H](NC(=O)[C@@H](N)CCCCNC(=O)CC[C@H](NC(=O)CC[C@H](NC(=O)CCCCCCCCCCCCCCCCCCC(=O)O)C(=O)O)C(=O)O)C(=O)N[C@@H](CC(N)=O)C(=O)N[C@@H]([C@@H](C)O)C(=O)N[C@@H](C)C(=O)N[C@@H]([C@@H](C)O)C(=O)N1)[C@@H](C)O)C(=O)N1CCC[C@H]1C(=O)N[C@@H](CO)C(=O)N[C@@H](CO)C(=O)N[C@H](C(=O)N[C@@H](CC(N)=O)C(=O)N[C@H](C(=O)NCC(=O)N[C@@H](CO)C(=O)N[C@@H](CC(=O)O)C(=O)N[C@H](C(=O)N[C@@H](Cc1ccc(O)cc1)C(N)=O)[C@@H](C)O)C(C)C)[C@@H](C)O [Example 2] (H-K([γGlu-γGlu-C20 diacid])CNTATCATQRLADFLRHSSPNFGAIPSSTNVGSDTY-NH2; disulfide 2-7; N-terminus assumed) | does not trigger a notable suppression of the calcium level | 39% | 10% | 72% | 62% | – | – | –
4 | – | 23 h | 32.5 nM | – | 7% | CC[C@H](C)[C@H](NC(=O)[C@H](C)NC(=O)CNC(=O)[C@H](Cc1ccccc1)NC(=O)[C@H](CC(N)=O)NC(=O)[C@@H]1CCCN1C(=O)[C@H](CO)NC(=O)[C@H](CO)NC(=O)[C@H](Cc1c[nH]cn1)NC(=O)[C@H](CCCNC(=N)N)NC(=O)[C@H](CC(C)C)NC(=O)[C@H](Cc1ccccc1)NC(=O)[C@H](CCC(=O)O)NC(=O)[C@H](C)NC(=O)[C@H](CC(C)C)NC(=O)[C@H](CCCNC(=N)N)NC(=O)[C@H](CCC(N)=O)NC(=O)[C@@H](NC(=O)[C@H](C)NC(=O)[C@@H]1CSSC[C@H](NC(=O)[C@@H](N)CCCCNC(=O)CC[C@H](NC(=O)CC[C@H](NC(=O)CCCCCCCCCCCCCCCCCCC(=O)O)C(=O)O)C(=O)O)C(=O)N[C@@H](CC(N)=O)C(=O)N[C@@H]([C@@H](C)O)C(=O)N[C@@H](C)C(=O)N[C@@H]([C@@H](C)O)C(=O)N1)[C@@H](C)O)C(=O)N1CCC[C@H]1C(=O)N[C@@H](CO)C(=O)N[C@@H](CO)C(=O)N[C@H](C(=O)N[C@@H](CC(N)=O)C(=O)N[C@H](C(=O)NCC(=O)N[C@@H](CO)C(=O)N[C@@H](CCCNC(=N)N)C(=O)N[C@H](C(=O)N[C@@H](Cc1ccc(O)cc1)C(N)=O)[C@@H](C)O)C(C)C)[C@@H](C)O [Example 89] (H-K([γGlu-γGlu-C20 diacid])CNTATCATQRLAEFLRHSSPNFGAIPSSTNVGSRTY-NH2; disulfide 2-7 (inferred); N-terminus assumed) | – | – | – | 46% | 37% | None of the example compounds at 30 nmol/kg trigger a notable suppression of the calcium level | induces a more pronounced suppression of the calcium level | reduce food intake
5 | – | 14 h | 17.5 nM | – | 8% | CC[C@H](C)[C@H](NC(=O)[C@H](C)NC(=O)CNC(=O)[C@H](Cc1ccccc1)NC(=O)[C@H](CC(N)=O)NC(=O)[C@@H]1CCCN1C(=O)[C@H](CO)NC(=O)[C@H](CO)NC(=O)[C@H](Cc1c[nH]cn1)NC(=O)[C@H](CCCNC(=N)N)NC(=O)[C@H](CC(C)C)NC(=O)[C@H](Cc1ccccc1)NC(=O)[C@H](CCC(=O)O)NC(=O)[C@H](C)NC(=O)[C@H](CC(C)C)NC(=O)[C@H](CCCNC(=N)N)NC(=O)[C@H](CCC(N)=O)NC(=O)[C@@H](NC(=O)[C@H](C)NC(=O)[C@@H]1CSSC[C@H](NC(=O)[C@@H](N)CCCCNC(=O)CC[C@H](NC(=O)CC[C@H](NC(=O)CCCCCCCCCCCCCCCCCCC(=O)O)C(=O)O)C(=O)O)C(=O)N[C@@H](CC(N)=O)C(=O)N[C@@H]([C@@H](C)O)C(=O)N[C@@H](C)C(=O)N[C@@H]([C@@H](C)O)C(=O)N1)[C@@H](C)O)C(=O)N1CCC[C@H]1C(=O)N[C@@H](CO)C(=O)N[C@@H](CO)C(=O)N[C@H](C(=O)N[C@@H](CC(N)=O)C(=O)N[C@H](C(=O)NCC(=O)N1CCC[C@H]1C(=O)N[C@@H](CCCNC(=N)N)C(=O)N[C@H](C(=O)N[C@@H](Cc1ccc(O)cc1)C(N)=O)[C@@H](C)O)C(C)C)[C@@H](C)O [Example 110] (H-K([γGlu-γGlu-C20 diacid])CNTATCATQRLAEFLRHSSPNFGAIPSSTNVGPRTY-NH2; disulfide 2-7) | – | – | – | 68% | 31% | None of the example compounds at 30 nmol/kg trigger a notable suppression of the calcium level | – | reduces food intake
